Assay results published in patent US20250313604A1, “PEPTIDE PHARMACEUTICALS FOR INSULIN RESISTANCE” (Mederis Diabetes LLC, priority 2014, published 2025).
Read-outs that look alike come from different tables or passages of the source. One block for each compound: values may come before it.

Columns and labels:
[1] = in water; cited from earlier work
[2] = test system: DIO mice; experiment: In vivo assay in DIO mice (OGTT, insulin, body weight, NMR body composition)
Method: Fifty (50) diet induced obese (DIO) C57BL/6J male mice were received from JAX labs at 6 wks of age. The mice were ear notched for identification and housed […] in positively ventilated polycarbonate cages with HEPA filtered air at a density of 5 mice per cage. The animal room was lit entirely with artificial fluorescent lighting, with a controlled 12 h light/dark cycle. The normal temperature and relative humidity ranges in the animal rooms were 22±4° C. and 50±15%, respectively. Filtered tap water, acidified to a pH of 2.8 to 3.1, and high fat diet (Research Diets D12492; 60 kcal %) was provided ad libitum.
Following a 2 week acclimation, 50 mice were randomized into groups (n=10) as below. Group 1. Vehicle treated; Group 2. Low dose EU-A994; Group 3. high dose EU-A594; Group 4. low dose EU-A1024; Group 5. high dose EU-A1024. Mice were dosed via SC on days 1 (0, 7 hrs.), 3, 6, 9, 12, 15, 18, 21, 24. Body weights and cage side observations were recorded daily. Food and water intake was recorded weekly. Mice underwent NMR measurements for determining whole body fat and lean composition on days 1 (pre-dose) and 26. On day 26, mice were fasted overnight for an oral glucose tolerance test. Next day, the first blood sample was collected via tail nick (t=0). Mice were then administered a bolus of 1.0 g/kg glucose. Blood samples were obtained via tail nick at 0, 15, 30, 60, 90 and 120 min after glucose and plasma glucose was immediately determined using a glucometer.
Sacrifice and tissue collection: Mice were sacrificed on day 28. Terminal blood was processed to serum/plasma and aliquots were sent for analysis of glucose, insulin and lipid profile. Body composition was determined by NMR.

[3] = target: T1, glucagon R (Homo sapiens, UniProt P47871); experiment: DiscoveRx LeadHunter cellular assay, cAMP stimulation, glucagon receptor; assay type: cell-based; conditions: human receptor cloned into CHO cells
T1 construct: host or cells: CHO cells
T1 sequence (P47871 26-477): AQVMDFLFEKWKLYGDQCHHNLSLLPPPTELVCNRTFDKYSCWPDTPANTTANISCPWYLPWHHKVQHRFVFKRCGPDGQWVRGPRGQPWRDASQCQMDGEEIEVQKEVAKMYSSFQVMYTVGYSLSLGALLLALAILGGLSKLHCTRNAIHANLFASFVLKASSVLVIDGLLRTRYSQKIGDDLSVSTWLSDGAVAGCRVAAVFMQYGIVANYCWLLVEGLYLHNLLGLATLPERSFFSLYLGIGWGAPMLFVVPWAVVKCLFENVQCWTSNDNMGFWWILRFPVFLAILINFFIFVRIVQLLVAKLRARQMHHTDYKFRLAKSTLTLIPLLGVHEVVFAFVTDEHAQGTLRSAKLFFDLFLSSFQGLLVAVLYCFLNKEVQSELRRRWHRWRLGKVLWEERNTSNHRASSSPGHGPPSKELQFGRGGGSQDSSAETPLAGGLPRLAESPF

[4] = target: T2, GLP-1 R (Homo sapiens, UniProt P43220); experiment: DiscoveRx LeadHunter cellular assay, cAMP stimulation, GLP-1 receptor; assay type: cell-based; conditions: human receptor cloned into CHO cells
T2 construct: host or cells: CHO cells
T2 sequence (P43220 24-463): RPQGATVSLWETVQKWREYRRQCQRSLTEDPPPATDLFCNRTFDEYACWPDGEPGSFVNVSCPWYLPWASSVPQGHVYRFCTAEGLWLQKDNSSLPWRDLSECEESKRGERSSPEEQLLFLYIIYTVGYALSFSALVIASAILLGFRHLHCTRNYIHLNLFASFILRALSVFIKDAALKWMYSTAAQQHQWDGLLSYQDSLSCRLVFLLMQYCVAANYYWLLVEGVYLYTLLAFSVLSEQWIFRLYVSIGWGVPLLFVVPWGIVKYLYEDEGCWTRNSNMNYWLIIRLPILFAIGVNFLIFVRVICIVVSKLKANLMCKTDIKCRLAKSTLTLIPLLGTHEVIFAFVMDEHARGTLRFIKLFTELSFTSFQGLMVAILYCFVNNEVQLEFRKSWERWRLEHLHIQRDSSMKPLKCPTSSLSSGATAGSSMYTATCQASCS

[5] = Plasma protease stability; assay type: in vitro ADME; conditions: incubation at 30 degC, t=0-8 hrs, LC-MS (FIG. 8)
Method: Standard and QC Sample Preparation: i. […] Make standard working solutions in 50% CH3CN with the stock solution. […] Spiked 10 μL of the working solutions into 90 μL blank plasma and vortex them, iv. […] Transfer the supernatant into an HPLC injection plate for loading on the HPLC column, vi.

Compound: CCCCCCCCCCCCO[C@@H]1O[C@H](CO)[C@@H](O[C@H]2O[C@H](CO)[C@@H](O)[C@H](O)[C@H]2O)[C@H](O)[C@H]1O [Dodecyl-β-D-maltoside]
- CMC [1]: 0.17 mM

Compound: CCCCCCCCCCCCCCO[C@@H]1O[C@H](CO[C@H]2O[C@H](C(=O)NCCCC[C@H](NC(=O)[C@@H](NC(=O)[C@H](Cc3ccccc3)NC(=O)[C@H](CCC(=O)O)NC(=O)[C@@H]3CCCCNC(=O)CC[C@H](NC(=O)[C@H](CC(=O)O)NC(=O)[C@H](CC(C)C)NC(=O)[C@H](Cc4ccc(O)cc4)NC(=O)[C@H](CCCCN)NC(=O)[C@H](CO)NC(=O)[C@H](Cc4ccc(O)cc4)NC(=O)[C@H](CC(=O)O)NC(=O)[C@H](CO)NC(=O)[C@@H](NC(=O)[C@H](Cc4ccccc4)NC(=O)[C@@H](NC(=O)CNC(=O)[C@H](CCC(N)=O)NC(=O)C(C)(C)NC(=O)[C@@H](N)Cc4c[nH]cn4)[C@@H](C)O)[C@@H](C)O)C(=O)N[C@@H](CCC(N)=O)C(=O)N[C@@H](C)C(=O)N[C@@H](C)C(=O)N3)[C@@H](C)CC)C(=O)N[C@@H](Cc3c[nH]c4ccccc34)C(=O)N[C@@H](CC(C)C)C(=O)N[C@@H](CC(C)C)C(=O)N[C@@H](CCC(N)=O)C(=O)N[C@H](C(N)=O)[C@@H](C)O)[C@H](O)[C@H](O)[C@H]2O)[C@@H](O)[C@H](O)[C@H]1O [EU-A1024, His1-Aib2-Gln3-Gly4-Thr5-Phe6-Thr7-Ser8-Asp9-Tyr10-Ser11-Lys12-Tyr13-Leu14-Asp15-Glu*16-Gln17 Ala18-Ala19-Lys*20-Glu21-Phe22-Ile23-Lys (N-omega (1-tetradecyl beta-D-melibiouronyl)) 24-Trp25-Leu26-Leu27-Gln28-Thr29-NH2]
- fat mass ([2]; NMR (FIG. 11)): decreased fat mass
- lean mass ([2]; NMR (FIG. 11)): minimal effects on lean mass
- basal insulin secretion ([2]; SC dosing days 1-24): decreased basal insulin secretion
- glucose-dependent insulin secretion ([2]; SC dosing days 1-24): potentiated glucose-dependent insulin secretion
- weight gain ([2]; SC dosing days 1-24 (FIG. 10)): decreased weight gain
- glucose excursion in the OGTT ([2]; SC dosing days 1-24, OGTT 1.0 g/kg glucose): decreased glucose excursion

- EC50 [3]: 0.253 nM
- EC50 [4]: 0.081 nM
Compound: CCCCCCCCCCCCCCO[C@H]1O[C@H](CO[C@H]2O[C@H](C(=O)NCCCC[C@@H]3NC(=O)[C@@H](NC(=O)[C@H](CC(=O)O)NC(=O)[C@H](CC(C)C)NC(=O)[C@H](Cc4ccc(O)cc4)NC(=O)[C@H](CCCCN)NC(=O)[C@H](CO)NC(=O)[C@H](Cc4ccc(O)cc4)NC(=O)[C@H](CC(=O)O)NC(=O)[C@H](CO)NC(=O)[C@@H](NC(=O)[C@H](Cc4ccccc4)NC(=O)[C@@H](NC(=O)CNC(=O)[C@H](CCC(N)=O)NC(=O)C(C)(C)NC(=O)[C@@H](N)Cc4c[nH]cn4)[C@@H](C)O)[C@@H](C)O)CCC(=O)NCCCC[C@@H](C(=O)N[C@@H](CCC(=O)O)C(=O)N[C@@H](Cc4ccccc4)C(=O)N[C@H](C(=O)N[C@@H](CCC(N)=O)C(=O)N[C@@H](Cc4c[nH]c5ccccc45)C(=O)N[C@@H](CC(C)C)C(=O)N[C@@H](CC(C)C)C(=O)N[C@@H](CCC(N)=O)C(=O)N[C@H](C(N)=O)[C@@H](C)O)[C@@H](C)CC)NC(=O)[C@H](C)NC(=O)[C@H](C)NC3=O)[C@H](O)[C@H](O)[C@H]2O)[C@@H](O)[C@H](O)[C@H]1O [EU-A1587, His1-Aib2-Gln3-Gly4-Thr5-Phe6-Thr7-Ser8-Asp9-Tyr10-Ser11-Lys12-Tyr13-Leu14-Asp15-Glu*16-Lys (N-omega (1-tetradecyl alpha-D-melibiouronyl)) 17 Ala18-Ala19-Lys*20-Glu21-Phe22-Ile23-Gln24-Trp25-Leu26-Leu27-Gln28-Thr29-NH2]

- EC50 [3]: 0.655 nM
- EC50 [4]: 0.236 nM
Compound: CCCCCCCCCCCCCCCCCCO[C@H]1O[C@H](CO[C@H]2O[C@H](C(=O)NCCCC[C@@H]3NC(=O)[C@@H](NC(=O)[C@H](CC(=O)O)NC(=O)[C@H](CC(C)C)NC(=O)[C@H](Cc4ccc(O)cc4)NC(=O)[C@H](CCCCN)NC(=O)[C@H](CO)NC(=O)[C@H](Cc4ccc(O)cc4)NC(=O)[C@H](CC(=O)O)NC(=O)[C@H](CO)NC(=O)[C@@H](NC(=O)[C@H](Cc4ccccc4)NC(=O)[C@@H](NC(=O)CNC(=O)[C@H](CCC(N)=O)NC(=O)C(C)(C)NC(=O)[C@@H](N)Cc4c[nH]cn4)[C@@H](C)O)[C@@H](C)O)CCC(=O)NCCCC[C@@H](C(=O)N[C@@H](CCC(=O)O)C(=O)N[C@@H](Cc4ccccc4)C(=O)N[C@H](C(=O)N[C@@H](CCC(N)=O)C(=O)N[C@@H](Cc4c[nH]c5ccccc45)C(=O)N[C@@H](CC(C)C)C(=O)N[C@@H](CC(C)C)C(=O)N[C@@H](CCC(N)=O)C(=O)N[C@H](C(N)=O)[C@@H](C)O)[C@@H](C)CC)NC(=O)[C@H](C)NC(=O)[C@H](C)NC3=O)[C@H](O)[C@H](O)[C@H]2O)[C@@H](O)[C@H](O)[C@H]1O [EU-A1589, His1-Aib2-Gln3-Gly4-Thr5-Phe6-Thr7-Ser8-Asp9-Tyr10-Ser11-Lys12-Tyr13-Leu14-Asp15-Glu*16Lys (N-omega (1-octadecyl alpha-D-melibiouronyl)) 17 Ala18-Ala19-Lys*20-Glu21-Phe22-Ile23-Gln24-Trp25-Leu26-Leu27-Gln28-Thr29-NH2]

Compound: CCCCCCCCCCCCO[C@@H]1O[C@H](CO[C@H]2O[C@H](C(=O)NCCCC[C@H](NC(=O)[C@@H](NC(=O)[C@H](Cc3ccccc3)NC(=O)[C@H](CCC(=O)O)NC(=O)[C@@H]3CCCCNC(=O)CC[C@H](NC(=O)[C@H](CC(=O)O)NC(=O)[C@H](CC(C)C)NC(=O)[C@H](Cc4ccc(O)cc4)NC(=O)[C@H](CCCCN)NC(=O)[C@H](CO)NC(=O)[C@H](Cc4ccc(O)cc4)NC(=O)[C@H](CC(=O)O)NC(=O)[C@H](CO)NC(=O)[C@@H](NC(=O)[C@H](Cc4ccccc4)NC(=O)[C@@H](NC(=O)CNC(=O)[C@H](CCC(N)=O)NC(=O)C(C)(C)NC(=O)[C@@H](N)Cc4c[nH]cn4)[C@@H](C)O)[C@@H](C)O)C(=O)N[C@@H](CCC(N)=O)C(=O)N[C@@H](C)C(=O)N[C@@H](C)C(=O)N3)[C@@H](C)CC)C(=O)N[C@@H](Cc3c[nH]c4ccccc34)C(=O)N[C@@H](CC(C)C)C(=O)N[C@@H](CC(C)C)C(=O)N[C@@H](CCC(N)=O)C(=O)N[C@H](C(=O)NCCOCCOCCOCCOCCC(=O)O)[C@@H](C)O)[C@H](O)[C@H](O)[C@H]2O)[C@@H](O)[C@H](O)[C@H]1O [EU-A1639]
- EC50 ([3]; read-out: EC50 cAMP glucagon R): 2.29 nM
- EC50 [4]: 0.385 nM

Compound: CCCCCCCCCCCCO[C@@H]1O[C@H](CO[C@H]2O[C@H](C(=O)NCCCC[C@H](NC(=O)[C@@H](NC(=O)[C@H](Cc3ccccc3)NC(=O)[C@H](CCC(=O)O)NC(=O)[C@@H]3CCCCNC(=O)CC[C@H](NC(=O)[C@H](CC(=O)O)NC(=O)[C@H](CC(C)C)NC(=O)[C@H](Cc4ccc(O)cc4)NC(=O)[C@H](CCCCN)NC(=O)[C@H](CO)NC(=O)[C@H](Cc4ccc(O)cc4)NC(=O)[C@H](CC(=O)O)NC(=O)[C@H](CO)NC(=O)[C@@H](NC(=O)[C@H](Cc4ccccc4)NC(=O)[C@@H](NC(=O)CNC(=O)[C@H](CCC(N)=O)NC(=O)C(C)(C)NC(=O)[C@@H](N)Cc4c[nH]cn4)[C@@H](C)O)[C@@H](C)O)C(=O)N[C@@H](CCC(N)=O)C(=O)N[C@@H](C)C(=O)N[C@@H](C)C(=O)N3)[C@@H](C)CC)C(=O)N[C@@H](Cc3c[nH]c4ccccc34)C(=O)N[C@@H](CC(C)C)C(=O)N[C@@H](CC(C)C)C(=O)N[C@@H](CCC(N)=O)C(=O)N[C@H](C(=O)NCCOCCOCCOCCOCCOCCOCCOCCOCCC(=O)O)[C@@H](C)O)[C@H](O)[C@H](O)[C@H]2O)[C@@H](O)[C@H](O)[C@H]1O [EU-A1651]
- EC50 ([3]; read-out: EC50 cAMP glucagon R): 0.149 nM
- EC50 [4]: 0.033 nM

Compound: CC[C@H](C)[C@H](NC(=O)[C@H](Cc1ccccc1)NC(=O)[C@H](CCC(=O)O)NC(=O)[C@H](CCCCN)NC(=O)[C@H](C)NC(=O)[C@H](C)NC(=O)[C@H](CCC(N)=O)NC(=O)CNC(=O)[C@H](CCC(=O)O)NC(=O)[C@H](CC(C)C)NC(=O)[C@H](Cc1ccc(O)cc1)NC(=O)[C@H](CO)NC(=O)[C@H](CO)NC(=O)[C@@H](NC(=O)[C@H](CC(=O)O)NC(=O)[C@H](CO)NC(=O)[C@@H](NC(=O)[C@H](Cc1ccccc1)NC(=O)[C@@H](NC(=O)CNC(=O)[C@H](CCC(=O)O)NC(=O)[C@H](C)NC(=O)[C@@H](N)Cc1c[nH]cn1)[C@@H](C)O)[C@@H](C)O)C(C)C)C(=O)N[C@@H](C)C(=O)N[C@@H](Cc1c[nH]c2ccccc12)C(=O)N[C@@H](CC(C)C)C(=O)N[C@H](C(=O)N[C@@H](CCCCN)C(=O)NCC(=O)N[C@@H](CCCNC(=N)N)C(N)=O)C(C)C [GIP-1 (7-36), reference compound]
- amount of intact compound in the human plasma versus time [5]: rapid decrease

Compound: CCCCCCCCO[C@@H]1O[C@H](CO)[C@@H](O[C@H]2O[C@H](CO)[C@@H](O)[C@H](O)[C@H]2O)[C@H](O)[C@H]1O [Octyl maltoside]
- CMC [1]: 19.5 mM

Compound: Sucrose dodecanoate
- CMC [1]: 0.3 mM
